The values that follow come from patent US10376553B2, “Pharmaceutical composition for preventing and treating chronic obstructive lung disease containing, as active ingredient, Magnoliae flos extract, fraction, or active fraction thereof” (KOREA RESEARCH INSTITUTE OF BIOSCIENCE AND BIOTECHNOLOGY, priority 2015, dated 2019).

SMILES strings stand for the structures.

Experiment [1] relates to IL-6. Nature of the experiment: IL-6 level in BALF of the COPD model (ELISA). It is filed as in vivo, C57BL/6N mice. To be noted: vs COPD-induced group; for IL-6 inhibition rate (%): BALF. The procedure: (§1) Cytokines were measured in the cell supernatant obtained in <Test Example 6-3> above by the following method. Specifically, the levels of IL-6 (R & D System, USA) and TNF-α (BD Bioscience, USA) in the separated BALF were measured by enzyme-linked immuno-sorbent assay (ELISA). Each cytokine analysis was carried out according to the manufacturer's test method.
(ELISA stands for enzyme-linked immunosorbent assay.)

The test system of experiment [2] is TNF-α. Kind of experiment: TNF-α level in BALF of the COPD model (ELISA). In kind it is in vivo, C57BL/6N mice. To be noted: vs COPD-induced group; for TNF-α inhibition rate (%): BALF. The procedure:
as §1

The subject of experiment [3] is MUC5AC protein. Kind of experiment: Inhibition of MUC5AC protein production (immunoassay) by the compounds. The settings on record: MUC5AC secretion, TNF-α 20 ng/mL. In kind it is cell-based, human. The procedure:
For immunoassay of the resulting MUC5AC, the supernatant (50 uL) recovered was dispensed on to a 96-well plate and dried in a thermostat set at 50° C. It was washed with PBS supplemented with 1% BSA and reacted with an MUC5AC antibody (abcam, USA) at room temperature for 1 hour. A secondary antibody was dispensed thereto for reaction for 1 hour. It was washed again and then reacted with a 3,3′,5,5′-tetramethylbenzidine peroxide solution for 20 minutes. After the reaction was stopped with a sulfuric acid solution, the degree of color development was measured at 450 nm.
As a result, as shown in the following Table 6, the amount of MUCSAC secretion increased in the group treated with TNF-α.

The subject of experiment [4] is inflammatory cells in the bronchoalveolar lavage fluid. Kind of experiment: Inflammatory cells in bronchoalveolar lavage fluid of the COPD mouse model (cigarette smoke + LPS). The settings on record: BALF, vs COPD-induced group. It is filed as in vivo, C57BL/6N mice. As for the experimental part:
Six-week-old male SPF (specific pathogen-free) C57BL/6N mice (22 to 24 g) were supplied by Koatech (Korea). These animals were fed with a sufficient amount of solid feed (no antibiotics, Samyang Feed Co.) and water until the day of the experiment. They were allowed to adapt for 1 week in a light-dark cycle environment at a temperature of 22±2° C. and a humidity of 55±15%, and then subjected to the experiment.
The animal model was exposed to cigarette smoke to induce chronic obstructive pulmonary disease. 3R4F Kentuchy Reference Cigarettes as standard cigarettes for use to generate cigarette smoke were supplied by University of California (USA). The standard cigarettes contain 9.4 mg of tar, 11 mg of total particle matter (TPM), and 12 mg of carbon monoxide per 1 cigarette. The standard cigarettes were used after harmonization for 48 hours to 72 hours at a temperature of 22±1° C. and a humidity of 60±2%. Further, Cigarette Smoke Generator manufactured by Korea BioLink (Korea) was used for exposure to cigarette smoke. Cigarette smoke was inhaled for 1 hour (8 pcs/hour) for 7 days from 1 hour after oral administration of a sample. 10 μg of LPS (lipopolysaccharide) in PBS 50 μL was injected intranasally to each mouse on the 4th day of the experiment after the mouse was anesthetized with zoletyl 1 hour before the exposure to cigarette smoke. The smoking condition was 8 puffs per 1 standard cigarette (volume: 45 mL, duration: 2 seconds, and interval: 1 time/min).
The active fraction of Magnoliae flos (15, 30 mg/kg) and roflumilast (10 mg/kg) as therapeutic substances were dissolved in 0.5% sodium carboxymethyl cellulose and were orally administered 1 hour before the exposure to cigarette smoke.
The experimental groups were divided into (i) normal control (NC) group; (ii) cigarette smoke+LPS exposure group (COPD); (iii) experimental group administered with roflumilast (ROF) (10 mg/kg, p.o) 1 hour before the exposure to cigarette smoke+LPS; and (iv) experimental group administered with the active fraction of Magnoliae flos (15, 30 mg/kg, p.o; Magnoliae flos 15 and Magnoliae flos 30) 1 hour before the exposure to cigarette smoke+LPS. […] Then, they were administered in the same manner as above.
The bronchial alveolar lavage fluid was separated from the animal model treated with the active fraction and the compounds of Magnoliae flos in <Test Example 6-2> above in the following manner, and the number of inflammatory cells was measured.
Specifically, a mouse sonde was inserted into the bronchial tube, a 1 mL syringe containing 0.7 mL of DPBS (Dulbecco's Phosphate-Buffered Saline) was connected thereto, and DPBS was injected into the lung. The injected DPBS was recovered, and this procedure was repeated twice. The bronchoalveolar lavage fluid separated by DPBS was centrifuged at 1,500 rpm for 15 minutes to make a cell pellet. The supernatant was stored frozen at −70° C. for cytokine analysis. Each cell obtained was suspended in DPBS, attached to a slide glass using a cytospin centrifuge, and Diff-Quik stained. The number of inflammatory cells in each sample was counted through microscopic examination, and the inhibition rate was calculated according to the following Equation 3.
Inhibition rate=(Value of COPD-induced group−value of target substance administered group)×100/(Value of COPD-induced group) [Equation 3]

Experiment [5] has as its system reactive oxygen species. Kind of experiment: Production of active oxygen species in BALF of the COPD model (DCF-DA). It is filed as in vivo, C57BL/6N mice. The settings on record: for Active oxygen inhibition rate (%) / production of active oxygen species (in words): vs COPD-induced group; for production of active oxygen species (in words): 15 and 30 mg/kg. As for the experimental part:
Production of active oxygen species in the bronchoalveolar lavage fluid obtained in <Test Example 6-3> above was confirmed by the following method.
Specifically, the separated BALF (200 μL) was treated to the final concentration of 20 μM of DCF-DA (dihydrodichlorofluorescein diacetate, Sigma-Aldrich, USA), followed by culturing for 30 minutes and measurement using Fluorescence (Molecular Device, USA). The inhibition rate was calculated by Equation 3 above.

Take `COc1ccc([C@H]2OC[C@H]3[C@@H]2CO[C@@H]3c2ccc3c(c2)OCO3)cc1OC` [Compound S5, dimethoxyaschantin]: the “IL-6 inhibition rate (%)” value in experiment [1] (15 mg/kg p.o.) was 36.1 ± 5.5%; in experiment [1] (30 mg/kg p.o.) it was 48.8 ± 4.4%. Also, the “IL-6 in the bronchoalveolar lavage fluid (in words)” value in experiment [1] is on record as “concentration-dependent decrease”. In addition, the figures for the “TNF-α inhibition rate (%)” value in experiment [2] (15 mg/kg p.o.) and in experiment [2] (30 mg/kg p.o.) were 32.9 ± 4.8% and 39.1 ± 1.9%, respectively. Further, in experiment [2], the “TNF-α secretion in the bronchoalveolar lavage fluid (in words)” value was “concentration-dependent inhibition”. Also, the “Inhibition rate (%)” value came out at 13.93% in experiment [3] (2.5 μM), 10.12% in experiment [3] (5 μM) and 16.43% in experiment [3] (10 μM). For the same compound, the figures for the “Inhibition rate of inflammatory cell infiltration (%) Macrophage” value (“Inhibition rate … (%) Macrophage” below) in experiment [4] (15 mg/kg p.o.) and in experiment [4] (30 mg/kg p.o.) were 28.3 ± 7.2% and 37.1 ± 7.1%, respectively. The “Inhibition rate of inflammatory cell infiltration (%) Neutrophil” value (“Inhibition rate … (%) Neutrophil” below) in experiment [4] (15 mg/kg p.o.) was found to be 44.2 ± 4.1%; in experiment [4] (30 mg/kg p.o.) it was 53.2 ± 5.4%. In addition, the “Inhibition rate of inflammatory cell infiltration (%) Total inflammatory cells” value (“Inhibition rate … (%) Total inflammatory cells” below) was determined as 33.0 ± 4.4% in experiment [4] (15 mg/kg p.o.) and 43.2 ± 5.4% in experiment [4] (30 mg/kg p.o.). For the same compound, the “Active oxygen inhibition rate (%)” value in experiment [5] (15 mg/kg p.o.) turned out to be 31.3 ± 2.5%; in experiment [5] (30 mg/kg p.o.), 39.7 ± 3.5%. Also, the “production of active oxygen species (in words)” value (from here on “production”) in experiment [5] is “relatively higher inhibition rates in a manner depending on concentration”.

Take `COc1cc([C@H]2OC[C@H]3[C@@H]2CO[C@@H]3c2ccc3c(c2)OCO3)cc(OC)c1OC` [Compound S6, aschantin]: the “IL-6 inhibition rate (%)” value was found to be 59.3 ± 7.2% in experiment [1] (15 mg/kg p.o.) and 62.9 ± 6.0% in experiment [1] (30 mg/kg p.o.). In addition, the “IL-6 in the bronchoalveolar lavage fluid (in words)” value in experiment [1] is recorded as “concentration-dependent decrease”. The figures for the “TNF-α inhibition rate (%)” value in experiment [2] (15 mg/kg p.o.) and in experiment [2] (30 mg/kg p.o.) were 39.8 ± 10.2% and 47.8 ± 4.7%, respectively. Further, in experiment [2], the “TNF-α secretion in the bronchoalveolar lavage fluid (in words)” value is listed as “concentration-dependent inhibition”. The “Inhibition rate (%)” value is 0.15% in experiment [3] (2.5 μM), 4.19% in experiment [3] (5 μM) and 1.2% in experiment [3] (10 μM). Besides, the “Inhibition rate … (%) Macrophage” value in experiment [4] (15 mg/kg p.o.) worked out at 37.8 ± 5.3%; in experiment [4] (30 mg/kg p.o.), 26.0 ± 5.6%. The “Inhibition rate … (%) Neutrophil” value in experiment [4] (15 mg/kg p.o.) is 50.7 ± 5.9%; in experiment [4] (30 mg/kg p.o.) it was 66.3 ± 5.9%. For the same compound, the “Inhibition rate … (%) Total inflammatory cells” value came to 42.8 ± 2.4% in experiment [4] (15 mg/kg p.o.) and 43.7 ± 4.7% in experiment [4] (30 mg/kg p.o.). Further, the “increase in inflammatory cells (in words)” value in experiment [4] was “effectively inhibited”. The “rate of inhibiting reactive oxygen compared with ROF drug control group (in words)” value in experiment [5] (15 mg/kg) and in experiment [5] (30 mg/kg) was “higher rates of inhibiting reactive oxygen than that of the drug control group treated with ROF” each time. For the same compound, the “Active oxygen inhibition rate (%)” value in experiment [5] (15 mg/kg p.o.) was determined as 30.6 ± 7.6%; in experiment [5] (30 mg/kg p.o.) it was 33.5 ± 6.9%. The “production” value in experiment [5] is recorded as “relatively higher inhibition rates in a manner depending on concentration”.

Turning to `COc1ccc([C@@H]2OC[C@H]3[C@@H]2CO[C@@H]3c2ccc3c(c2)OCO3)cc1OC` [Compound S7, fargesin], the “IL-6 inhibition rate (%)” value is 50.8 ± 17.0% in experiment [1] (15 mg/kg p.o.) and 31.4 ± 9.6% in experiment [1] (30 mg/kg p.o.). For the same compound, the “TNF-α inhibition rate (%)” value in experiment [2] (15 mg/kg p.o.) is listed as 49.1 ± 2.6%; in experiment [2] (30 mg/kg p.o.), 34.1 ± 7.1%. Besides, the “Inhibition rate (%)” value in experiment [3] (2.5 μM) worked out at 0.79%; in experiment [3] (5 μM), 1.69%; in experiment [3] (10 μM), 11.05%. Also, the “Inhibition rate … (%) Macrophage” value was 37.1 ± 2.8% in experiment [4] (15 mg/kg p.o.) and 34.8 ± 6.1% in experiment [4] (30 mg/kg p.o.). Also, the “Inhibition rate … (%) Neutrophil” value was 51.7 ± 6.3% in experiment [4] (15 mg/kg p.o.) and 38.2 ± 5.4% in experiment [4] (30 mg/kg p.o.). Also, the “Inhibition rate … (%) Total inflammatory cells” value is 44.1 ± 3.7% in experiment [4] (15 mg/kg p.o.) and 34.1 ± 6.1% in experiment [4] (30 mg/kg p.o.). In addition, in experiment [4], the “increase in inflammatory cells (in words)” value is reported as “effectively inhibited”. The “rate of inhibiting reactive oxygen compared with ROF drug control group (in words)” value in experiment [5] (15 mg/kg) and in experiment [5] (30 mg/kg) was “higher rates of inhibiting reactive oxygen than that of the drug control group treated with ROF” in each case. Moreover, the “Active oxygen inhibition rate (%)” value in experiment [5] (15 mg/kg p.o.) is reported as 47.5 ± 5.2%; in experiment [5] (30 mg/kg p.o.), 39.6 ± 6.9%. In addition, in experiment [5], the “production” value is on record as “higher inhibition rate in the low dose groups”.
